This is an account of results in ChEMBL document CHEMBL1137870, “Synthesis and evaluation of 2-amino-8-alkoxy quinolines as MCHr1 antagonists. Part 2” (Bioorg Med Chem Lett, 2004).

Series [1] deals with T1, Melanin-concentrating hormone receptor 1 (Homo sapiens, UniProt Q99705). The series is described as follows: Concentration required to inhibit 50% of melanin-concentrating hormone induced [Ca2+] flux in IMR-32 cells measured by using a fluorometric imaging plate reader. The class given is functional, cell-based.
T1 sequence (Q99705 whole entry): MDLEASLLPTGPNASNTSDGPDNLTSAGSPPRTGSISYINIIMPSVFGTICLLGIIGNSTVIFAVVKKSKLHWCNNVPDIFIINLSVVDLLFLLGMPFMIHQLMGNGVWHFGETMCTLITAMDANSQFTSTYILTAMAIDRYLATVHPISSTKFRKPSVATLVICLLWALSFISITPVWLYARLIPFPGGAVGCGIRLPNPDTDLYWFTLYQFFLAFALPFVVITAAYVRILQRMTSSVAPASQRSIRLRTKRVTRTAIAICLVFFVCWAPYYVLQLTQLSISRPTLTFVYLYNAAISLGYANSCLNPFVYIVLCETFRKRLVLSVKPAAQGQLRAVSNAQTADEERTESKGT
For series [2], the target named is T1, Melanin-concentrating hormone receptor 1. Kind of series: Concentration required to inhibit binding of [125I]-MCH radioligand to human Melanin-concentrating hormone receptor 1 in IMR-32 I3.4.2 cell membranes.
Series [3] is described as follows: Area under curve in plasma was determined at the peroral dose of 10 mg/kg in diet-induced obese (DIO) mice. The format is ADME, organism-based. Also noted: dose 10 mg/kg, route oral. Conditions: mouse, in vivo, po.
The nature of series [4]: Half life in plasma was determined at the peroral dose of 10 mg/kg in diet-induced obese (DIO) mice. The format is ADME, organism-based. Also on record: dose 10 mg/kg, route oral. Conditions: mouse, po.
Series [5] can be described thus: Brain/plasma ratio was determined at peroral dose of 10 mg/kg in diet-induced obese (DIO) mice. The class given is ADME, organism-based. The note with it: mouse, brain and plasma, po. Also on record: dose 10 mg/kg, route oral.
The nature of series [6]: Area under curve in brain was determined at the peroral dose of 10 mg/kg in diet-induced obese (DIO) mice. The class given is ADME, organism-based. Also noted: dose 10 mg/kg, route oral. Conditions: mouse, in vivo, po.
The nature of series [7]: Half life in brain was determined at the peroral dose of 10 mg/kg in diet-induced obese (DIO) mice. The class given is ADME, organism-based. Also on record: dose 10 mg/kg, route oral. Conditions: mouse, po.

Where only a bound is given, the exact number is not on record here.

For `CC(CN1CCOCC1)Oc1cccc2ccc(N)nc12` (stereo not given), the results for the IC50 in series [1] and in series [2] were 190 nM and 80 nM, respectively.
The like results for `CC(CNCC1CCCC1)Oc1cccc2ccc(N)nc12` (stereo not given) were, in that order, 100 nM and 100 nM.
For `Nc1ccc2cccc(OCCCNC(=O)Nc3cccc(Cl)c3)c2n1` the same measures were 8 nM and 0.9 nM.
The like results for `Nc1ccc2cccc(OCCCNC(=O)Nc3ccc4c(c3)OCO4)c2n1` were, in that order, 110 nM and 5 nM.
For the compound `CN(C)CC1CCc2cc(NC(=O)c3ccc(-c4ccc(F)cc4)cc3)ccc2C1` (single isomer, unassigned; (-)), the IC50 (in general, the midpoint of a concentration-inhibition curve) in series [1] was determined as 872 nM; in series [2], 85 nM.
For `Nc1ccc2cccc(OCCNCc3ccoc3)c2n1` the same measures were greater than 10000 nM and 660 nM.
Take `COCC1=C(C(=O)OC)[C@H](c2ccc(F)c(F)c2)N(C(=O)NCCCN2CCC(c3cccc(NC(C)=O)c3)CC2)C(=O)N1` [SNAP-7941]: the IC50 was 15 nM in series [1] and 3 nM in series [2].
The like results for `CC(CNCC1CC1)Oc1cccc2ccc(N)nc12` (stereo not given) were, in that order, 460 nM and 80 nM.
For `CC(C)c1ccc(CNCCCOc2cccc3ccc(N)nc23)cc1` the same measures were 630 nM and 10 nM.
As to `CC(CN1CCCCC1)Oc1cccc2ccc(N)nc12` (stereo not given), the concentration for half-maximal inhibition (IC50) in series [1] turned out to be 290 nM; in series [2] it was 40 nM.
The like results for `CC(CNC1CC1)Oc1cccc2ccc(N)nc12` (stereo not given) were, in that order, 580 nM and 50 nM.
For `COc1cccc(CNCC(C)Oc2cccc3ccc(N)nc23)c1` (stereo not given) the same measures were 600 nM and 1 nM.
The like results for `O=C(NCCCOc1cccc2ccc(NCc3ccc(-c4ccccc4Cl)o3)nc12)Nc1ccc2c(c1)OCO2` were, in that order, 3110 nM and 50 nM.
Consider `CC(CNC1CCCCC1)Oc1cccc2ccc(N)nc12` (stereo not given), for which the IC50 was 2170 nM in series [1] and 210 nM in series [2].
Regarding `Nc1ccc2cccc(OCCCNc3ccc4c(c3)OCO4)c2n1`, the IC50 worked out at 270 nM in series [1] and 10 nM in series [2].
For `Nc1ccc2cccc(OCCCNC(=O)c3cccc(Cl)c3)c2n1` the same measures were 3 nM and 0.4 nM.
The like results for `CC(CNCc1ccsc1)Oc1cccc2ccc(N)nc12` (stereo not given) were, in that order, 150 nM and 10 nM.
As for `COc1cccc(C(=O)NCCCOc2cccc3ccc(N)nc23)c1`, the IC50 in series [1] amounted to 30 nM; in series [2], 2 nM.
For `CC(CNCc1ccoc1)Oc1cccc2ccc(N)nc12` (stereo not given) the same measures were 100 nM and 10 nM.
For `CC(CNC1CCCC1)Oc1cccc2ccc(N)nc12` (stereo not given) the same measures were 30 nM and 30 nM.
Consider `Nc1ccc2cccc(OCCCNc3ccc4c(c3)OC(F)(F)O4)c2n1`, for which the results for the IC50 in series [1] and in series [2] were 100 nM and 1 nM, respectively.
The like results for `O=C(NCCCOc1cccc2ccc(NCc3ccc(-c4ccccc4Cl)o3)nc12)c1cccc(Cl)c1` were, in that order, 20 nM and 1 nM.
`CCCNc1ccc2cccc(OCCCNC(=O)c3cccc(Cl)c3)c2n1`: the half-maximal inhibitory concentration (IC50) in series [1] came to 1120 nM; in series [2], 10 nM.
For the compound `Nc1ccc2cccc(OCCCNC(=O)c3cccc(OC(F)(F)F)c3)c2n1`, the results for the IC50 in series [1] and in series [2] were 20 nM and 6 nM, respectively. Further, the area under the curve (AUC) (in general, the area under the concentration-time curve, a measure of exposure) was 424 ng·h/mL in series [3] and 68 ng·h/mL in series [6]. Besides, the half-life (as a rule, the time needed for the level to fall by half in the phase considered) was 72 min in series [4] and 36 min in series [7]. Further, the Kp (as a rule, tissue or fluid exposure divided by exposure in the circulation) in series [5] is 0.2.
In the case of `CC(CN1CCCC1)Oc1cccc2ccc(N)nc12` (stereo not given), the IC50 turned out to be 360 nM in series [1] and 70 nM in series [2].
The like results for `CC(CNCc1ccccc1)Oc1cccc2ccc(N)nc12` (stereo not given) were, in that order, 340 nM and 100 nM.
For the compound `N#Cc1cccc(C(=O)NCCCOc2cccc3ccc(NCc4ccc(-c5ccc(Cl)cc5)o4)nc23)c1`, the IC50 came out at 40 nM in series [1] and 2 nM in series [2].
With `N#Cc1cccc(C(=O)NCCCOc2cccc3ccc(N)nc23)c1`, the IC50 in series [1] came to 7 nM; in series [2], 3 nM. The exposure (AUC) in series [3] was 328 ng·h/mL; in series [6], 11 ng·h/mL. For the same compound, the half-life in series [4] is 84 min; in series [7] it was 96 min. Besides, the concentration ratio (Kp) in series [5] is 0.03.
With `Nc1ccc2cccc(OCCCNC(=O)c3ccc4c(c3)OCO4)c2n1`, the IC50 in series [1] amounted to 70 nM; in series [2], 7 nM.
On to `Nc1ccc2cccc(OCCCNCc3ccc(Cl)c(C(F)(F)F)c3)c2n1`, for which the concentration for half-maximal inhibition (IC50) in series [1] amounted to 220 nM; in series [2] it was 5 nM. Further, the AUC in series [3] worked out at 9960 ng·h/mL; in series [6], 9520 ng·h/mL. This compound gave a half-life in series [4] of 534 min. Besides, the Kp in series [5] was 0.96.
Regarding `Nc1ccc2cccc(OCCNCc3ccc4c(c3)OCO4)c2n1`, the figures for the concentration for half-maximal inhibition (IC50) in series [1] and in series [2] were 8960 nM and 520 nM, respectively.
With `CC(C)c1ccc(C(=O)NCCCOc2cccc3ccc(N)nc23)cc1`, the half-maximal inhibitory concentration (IC50) in series [1] amounted to 140 nM; in series [2], 60 nM.
Turning to `CC(CC(C)(C)C)Oc1cccc2ccc(N)nc12` (stereo not given), the half-maximal inhibitory concentration (IC50) in series [2] stood at 50 nM.
`CC(CNc1ccc2[nH]ncc2c1)Oc1cccc2ccc(N)nc12` (stereo not given): the values for the IC50 in series [1] and in series [2] were 8180 nM and 530 nM, respectively.
Take `N#Cc1cccc(C(=O)NCCCOc2cccc3ccc(NCc4ccc(-c5cccc(Cl)c5)o4)nc23)c1`: the figures for the IC50 in series [1] and in series [2] were 10 nM and 5 nM, respectively.
For `CC(CNCc1ccc2c(c1)OCO2)Oc1cccc2ccc(N)nc12` (stereo not given) the same measures were 130 nM and 30 nM.
